According to PubChem BioAssay (NCI):
“And” between values parts separate entries of the source, which are not always exact repeats. Equal values may be shown once.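 Briefly, cells in 96-well plates were exposed to five compound concentrations for 48 h, and endpoints were estimated by linear interpolation. GI50 marks 50% less growth. TGI: concentration producing complete growth inhibition.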

What was measured:
Experiment in all cases: NCI-60 cell line screen, 48 h
K-562 leukemia = test system: K-562 leukemia
NCI-H522 lung = test system: NCI-H522 lung
UACC-257 melanoma = test system: UACC-257 melanoma
RPMI-8226 leukemia = test system: RPMI-8226 leukemia
EKVX NSCLC = test system: EKVX NSCLC
SK-MEL-2 melanoma = test system: SK-MEL-2 melanoma
SNB-75 CNS = test system: SNB-75 CNS
LOX IMVI melanoma = test system: LOX IMVI melanoma
HCC-2998 colon = test system: HCC-2998 colon
SF-268 CNS = test system: SF-268 CNS

Row | Compound | TGI (K-562 leukemia) | TGI (NCI-H522 lung) | TGI (UACC-257 melanoma) | TGI (RPMI-8226 leukemia) | TGI (EKVX NSCLC) | TGI (SK-MEL-2 melanoma) | TGI (SNB-75 CNS) | TGI (LOX IMVI melanoma) | TGI (HCC-2998 colon) | TGI (SF-268 CNS) | GI50 (K-562 leukemia) | GI50 (NCI-H522 lung) | GI50 (UACC-257 melanoma) | GI50 (RPMI-8226 leukemia) | GI50 (EKVX NSCLC) | GI50 (SK-MEL-2 melanoma) | GI50 (SNB-75 CNS) | GI50 (LOX IMVI melanoma) | GI50 (HCC-2998 colon) | GI50 (SF-268 CNS)
1 | C=C(CN(CC(=C)C(=O)c1ccccc1)C(C)(C)C)C(=O)c1ccccc1 | 21.1 µM | 29.4 µM | 32.6 µM | 68.4 µM | 44.4 µM | 35.3 µM | 17.6 µM | 30.8 µM | 33.3 µM | 17 µM |  |  |  |  |  |  |  |  |  | 
2 | Nc1nc2ccc([C@@H]3Nc4ccc5[nH]ncc5c4[C@H]4[C@H]5CCC(C5)[C@H]43)cc2s1 | 5.87 µM | 3.4 µM | 5.46 µM | 5.3 µM | 4.92 µM | 6.79 µM | 2.47 µM | 2.54 µM | 3.76 µM | 4.52 µM | 0.328 µM | 1.38 µM | 2.12 µM | 1.39 µM | 1.47 µM | 1.82 µM | 0.319 µM | 0.935 µM | 1.75 µM | 1.49 µM
3 | COC(=O)[C@]12CC[C@@H](C)[C@H](C)[C@@H]1C1=CC[C@@H]3[C@@]4(C)C(C=O)=C[C@@](C)(COC(C)=O)[C@@H]4[C@H](O)C[C@@]3(C)[C@]1(C)CC2 | 9.77 µM | 8.83 µM | 4.8 µM | 4.55 µM | 10.2 µM | 6.15 µM | 10.5 µM | 2.91 µM | 3.6 µM | 9.14 µM | 3.57 µM | 3.46 µM | 2.02 µM | 1.4 µM | 2.76 µM | 2.61 µM | 1.74 µM | 1.57 µM | 1.83 µM | 2.65 µM
4 | COc1cc2cc(Oc3ccc(NC(=O)Nc4ccccc4)cc3)c(C)nc2cc1OCCN1CCCCC1 | 3.7 µM | 13 µM | 12.4 µM | 10.8 µM | 10.9 µM | 12.1 µM | 8.74 µM | 10.1 µM | 10.5 µM | 12.6 µM | 1.05 µM | 6.22 µM | 6.46 µM | 3.52 µM | 5.22 µM | 5.96 µM | 3.76 µM | 5.38 µM | 5.62 µM | 5.88 µM
5 | FC(F)(F)c1ccc(C=NC23CC4CC(CC(C4)C2)C3)cc1 | > 100 µM | > 100 µM | > 100 µM | > 100 µM | > 100 µM | > 100 µM | > 100 µM | > 100 µM | > 100 µM | > 100 µM |  |  |  |  |  |  |  |  |  | 
6 | CCc1cccc(C(C)C)c1NC(=O)C(=O)C(C(=O)C(=O)OC)c1nc2ccccc2[nH]c1=O (centres undefined) | > 100 µM | > 100 µM | > 100 µM | > 100 µM | > 100 µM | > 100 µM | > 100 µM | > 100 µM | > 100 µM | > 100 µM |  |  |  |  |  |  |  |  |  | 
7 | CO[C@H]1[C@H](O)[C@H](O[C@H]2CC[C@@]3(C)[C@H](CC[C@@H]4[C@@H]3CC[C@]3(C)[C@@H](C5=CC(=O)OC5)CC[C@]43O)C2)O[C@@H](C)[C@@H]1O | 0.0647 µM | 0.000282 µM | 0.00571 µM and < 0.0137 µM | 0.00542 µM | 0.00148 µM | 0.00476 µM and < 0.0175 µM | 0.0114 µM and 0.0737 µM | 0.00271 µM and < 0.0111 µM | 0.0584 µM and 0.0399 µM | 0.00183 µM and 0.0166 µM | 0.00062 µM |  |  |  |  |  | 0.00233 µM |  |  | 
8 | N/N=C1\c2ccccc2C2/C(=N\N)c3ccccc3C12 (centres undefined) | > 100 µM | > 100 µM | > 100 µM | > 100 µM | > 100 µM | > 100 µM | > 100 µM | > 100 µM | > 100 µM | > 100 µM |  |  |  |  |  |  |  |  |  | 
9 | C=CCNC1=C(C(=O)OCC)C(=O)CO1 | > 100 µM | > 100 µM | > 100 µM | > 100 µM | > 100 µM | > 100 µM | > 100 µM | > 100 µM | > 100 µM | > 100 µM |  |  |  |  |  |  |  |  |  | 
10 | CCC(C(=O)[O-])C(=O)[O-].CCC(C(=O)[O-])C(=O)[O-].N.N.NCCCCCN.[Pt+4].[Pt+4] | > 100 µM | > 100 µM | > 100 µM | > 100 µM | > 100 µM | > 100 µM | > 100 µM | > 100 µM | > 100 µM | > 100 µM | > 100 µM | > 100 µM | > 100 µM | > 100 µM | > 100 µM | > 100 µM | > 100 µM | > 100 µM | > 100 µM | > 100 µM
11 | O=S(=O)(NC(=S)Nc1ccccc1)c1ccc(N2N=C3c4ccccc4CC3C2c2cccs2)cc1 (centres undefined) | 56.5 µM | > 100 µM | 79.9 µM | 97.6 µM | 54.4 µM | > 100 µM | > 100 µM | 70.7 µM | 30.8 µM | > 100 µM | 31.3 µM | 32.8 µM | 29.1 µM | 30.3 µM | 19.5 µM | 59.9 µM | 71.9 µM | 24.4 µM | 13.9 µM | 30.7 µM
12 | COC(=O)c1ccc(=O)c2nc3/c(=C/O)c(O)cc(=O)c3[nH]c12 | > 100 µM | 31 µM and 18.2 µM | 16.1 µM and 27.8 µM | 30.7 µM and 3.93 µM | 8.52 µM and 14.2 µM | 15 µM and 16.7 µM | 16.4 µM and 13.6 µM | 20.3 µM and 15.4 µM | 25 µM and 18.9 µM | 24.9 µM and 18.6 µM | 0.372 µM | 0.389 µM | 2.74 µM | 0.393 µM | 0.557 µM | 2.27 µM | 0.482 µM | 0.662 µM | 2.94 µM | 1.2 µM
13 | Cc1cc(O)c2c(c1)C(=O)c1cc(O)cc(O)c1C2=O | > 100 µM | > 66.3 µM | > 100 µM | 99.8 µM | > 100 µM | > 74.3 µM | > 81.6 µM | 47.3 µM | > 100 µM | 97.5 µM | 28 µM |  |  |  | 24.3 µM |  |  |  |  | 
14 | N#CC1C(=N)Cc2ccccc2-c2ccccc21 (centres undefined) | 89.4 µM | 30.6 µM | 69.1 µM | > 100 µM | > 100 µM | 28.7 µM | 9.81 µM | 33.5 µM | 26 µM | 51.7 µM | 2.71 µM | 5.72 µM | 8.33 µM | 9.03 µM | 4.37 µM | 12 µM | 2.76 µM | 6.26 µM | 9.96 µM | 7.7 µM
15 | O=C([O-])c1ccc2c(c1)-c1nc-2nc2[n-]c(nc3nc(nc4[n-]c(n1)c1ccc(C(=O)[O-])cc41)-c1cc(C(=O)[O-])ccc1-3)c1ccc(C(=O)[O-])cc21.[Fe+2] | > 33.7 µM | > 50 µM | > 50 µM | > 36.4 µM | > 50 µM | > 50 µM | > 50 µM | > 42.9 µM | > 50 µM | > 50 µM | > 23 µM | > 50 µM | > 50 µM | > 27.3 µM | > 50 µM | > 50 µM | 31.8 µM | 20.7 µM | > 50 µM | > 50 µM
16 | COc1ccc(/C=C(/C(=O)N2CCCC2)c2cc(OC)c(OC)c(OC)c2)cc1N | > 100 µM | > 100 µM | > 100 µM | > 100 µM | > 100 µM | > 100 µM | > 100 µM | > 100 µM | > 100 µM | > 100 µM | 0.926 µM | 2.34 µM | > 100 µM | 4.05 µM | 4.63 µM | 4.72 µM | 2.18 µM | 3.77 µM | 6.76 µM | 5.44 µM
17 | O=C(Oc1ccc([N+](=O)[O-])cc1)N1CCN(Cc2cccc(Oc3ccccc3)c2)CC1 | > 100 µM | > 100 µM | > 100 µM | > 100 µM | > 100 µM | > 100 µM | > 100 µM | > 100 µM | > 100 µM | > 100 µM | 34.1 µM | > 50.9 µM | > 76.9 µM | 13.1 µM | 48.6 µM | > 67.1 µM | > 100 µM | > 82.6 µM | > 100 µM | > 100 µM
18 | COc1ccc(-c2cnc(-c3ccc(F)cc3)[nH]2)cc1 | > 55.1 µM | > 56.1 µM | 17.2 µM | > 27.2 µM | 18.5 µM | 45 µM | 10.7 µM | 10.8 µM | 25.1 µM | 8 µM | 10.3 µM | 20.5 µM | 5.17 µM | 2.39 µM | 5.9 µM | 18.8 µM | 4.26 µM | 5.49 µM | 7.4 µM | 2.62 µM
